From paper PMC3149900 (Chemical biology & drug design, 2010)

Conditions: PAMPA

CC(=O)CC(c1ccccc1)c1c(O)c2ccccc2oc1=O (stereo not shown) [Warfarin, warfarin]
Log (Pe): −4.95
